Experimental data: PubChem BioAssay (NCI)
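Test compounds were applied to cells in 96-well plates for 48 hours at 5 doses. TGI is the concentration that stops growth completely.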

Key:
Assay in all cases: growth of human tumour cells (NCI), 48 h
SF-268 CNS = tested on: SF-268 CNS
IGROV1 ovarian = tested on: IGROV1 ovarian
UO-31 renal = tested on: UO-31 renal
DU-145 prostate = tested on: DU-145 prostate
SR leukemia = tested on: SR leukemia
SW-620 colon = tested on: SW-620 colon
HT29 colon = tested on: HT29 colon
OVCAR-3 ovarian = tested on: OVCAR-3 ovarian
MOLT-4 leukemia = tested on: MOLT-4 leukemia
OVCAR-4 ovarian = tested on: OVCAR-4 ovarian
LOX IMVI melanoma = tested on: LOX IMVI melanoma
HOP-62 NSCLC = tested on: HOP-62 NSCLC
SNB-19 CNS = tested on: SNB-19 CNS
TK-10 renal = tested on: TK-10 renal
RXF 393 renal = tested on: RXF 393 renal
A498 renal = tested on: A498 renal
HCC-2998 colon = tested on: HCC-2998 colon
BT-549 breast = tested on: BT-549 breast
HOP-92 NSCLC = tested on: HOP-92 NSCLC
SK-OV-3 ovarian = tested on: SK-OV-3 ovarian
ACHN renal = tested on: ACHN renal
K-562 leukemia = tested on: K-562 leukemia
PC-3 prostate = tested on: PC-3 prostate
M14 melanoma = tested on: M14 melanoma
UACC-62 melanoma = tested on: UACC-62 melanoma
A549 NSCLC = tested on: A549 NSCLC
RPMI-8226 leukemia = tested on: RPMI-8226 leukemia
SF-295 CNS = tested on: SF-295 CNS
UACC-257 melanoma = tested on: UACC-257 melanoma
OVCAR-8 ovarian = tested on: OVCAR-8 ovarian
MDA-MB-435 = tested on: MDA-MB-435
CCRF-CEM leukemia = tested on: CCRF-CEM leukemia
SF-539 CNS = tested on: SF-539 CNS
HCT-116 colon = tested on: HCT-116 colon
T-47D breast = tested on: T-47D breast
U251 CNS = tested on: U251 CNS
NCI/ADR-RES ovarian = tested on: NCI/ADR-RES ovarian
EKVX NSCLC = tested on: EKVX NSCLC
MCF7 breast = tested on: MCF7 breast
COLO 205 colon = tested on: COLO 205 colon
HS 578T breast = tested on: HS 578T breast
SK-MEL-5 melanoma = tested on: SK-MEL-5 melanoma
MDA-MB-231 breast = tested on: MDA-MB-231 breast
HCT-15 colon = tested on: HCT-15 colon
SNB-75 CNS = tested on: SNB-75 CNS
NCI-H460 lung = tested on: NCI-H460 lung
HL-60(TB) leukemia = tested on: HL-60(TB) leukemia
NCI-H522 lung = tested on: NCI-H522 lung
KM12 colon = tested on: KM12 colon
SN12C renal = tested on: SN12C renal
SK-MEL-28 melanoma = tested on: SK-MEL-28 melanoma
CAKI-1 renal = tested on: CAKI-1 renal
OVCAR-5 ovarian = tested on: OVCAR-5 ovarian
NCI-H226 lung = tested on: NCI-H226 lung
786-0 renal = tested on: 786-0 renal
MDA-N = tested on: MDA-N
NCI-H23 lung = tested on: NCI-H23 lung
MALME-3M melanoma = tested on: MALME-3M melanoma
SK-MEL-2 melanoma = tested on: SK-MEL-2 melanoma

## O=C(Nc1noc(-c2ccccc2)n1)c1ccccc1CNc1noc(-c2ccccc2)n1
SF-268 CNS
  TGI: > 100 µM
IGROV1 ovarian
  TGI: > 100 µM
UO-31 renal
  TGI: > 100 µM
DU-145 prostate
  TGI: > 100 µM
SR leukemia
  TGI: > 100 µM
SW-620 colon
  TGI: > 100 µM
HT29 colon
  TGI: > 100 µM
OVCAR-3 ovarian
  TGI: > 100 µM
MOLT-4 leukemia
  TGI: > 100 µM
OVCAR-4 ovarian
  TGI: > 100 µM
LOX IMVI melanoma
  TGI: > 100 µM
HOP-62 NSCLC
  TGI: > 100 µM
SNB-19 CNS
  TGI: > 100 µM
TK-10 renal
  TGI: > 100 µM
RXF 393 renal
  TGI: > 100 µM
A498 renal
  TGI: > 100 µM
HCC-2998 colon
  TGI: > 100 µM
BT-549 breast
  TGI: > 100 µM
HOP-92 NSCLC
  TGI: > 100 µM
SK-OV-3 ovarian
  TGI: > 100 µM
ACHN renal
  TGI: > 100 µM
K-562 leukemia
  TGI: > 100 µM
PC-3 prostate
  TGI: > 100 µM
M14 melanoma
  TGI: > 100 µM
UACC-62 melanoma
  TGI: > 100 µM
A549 NSCLC
  TGI: > 100 µM
RPMI-8226 leukemia
  TGI: > 100 µM
SF-295 CNS
  TGI: > 100 µM
UACC-257 melanoma
  TGI: > 100 µM
OVCAR-8 ovarian
  TGI: > 100 µM
MDA-MB-435
  TGI: > 100 µM
CCRF-CEM leukemia
  TGI: > 100 µM
SF-539 CNS
  TGI: > 100 µM
HCT-116 colon
  TGI: > 100 µM
T-47D breast
  TGI: > 100 µM
U251 CNS
  TGI: > 100 µM
NCI/ADR-RES ovarian
  TGI: > 100 µM
EKVX NSCLC
  TGI: > 100 µM
MCF7 breast
  TGI: > 100 µM
COLO 205 colon
  TGI: > 100 µM
HS 578T breast
  TGI: > 100 µM
SK-MEL-5 melanoma
  TGI: > 100 µM
MDA-MB-231 breast
  TGI: > 100 µM
HCT-15 colon
  TGI: > 100 µM
SNB-75 CNS
  TGI: > 100 µM
NCI-H460 lung
  TGI: > 100 µM
HL-60(TB) leukemia
  TGI: > 100 µM
NCI-H522 lung
  TGI: > 100 µM
KM12 colon
  TGI: > 100 µM
SN12C renal
  TGI: > 100 µM
SK-MEL-28 melanoma
  TGI: > 100 µM
CAKI-1 renal
  TGI: > 100 µM
OVCAR-5 ovarian
  TGI: > 100 µM
NCI-H226 lung
  TGI: > 100 µM
786-0 renal
  TGI: > 100 µM
MDA-N
  TGI: > 100 µM
NCI-H23 lung
  TGI: > 100 µM
MALME-3M melanoma
  TGI: > 100 µM

## COC(=O)C1(Cc2ccc3c(c2)CCC3)Cc2ccccc2C1
SF-268 CNS
  TGI: > 100 µM
IGROV1 ovarian
  TGI: > 100 µM
UO-31 renal
  TGI: > 100 µM
DU-145 prostate
  TGI: > 100 µM
SR leukemia
  TGI: > 100 µM
SW-620 colon
  TGI: > 100 µM
HT29 colon
  TGI: 65 µM
OVCAR-3 ovarian
  TGI: > 100 µM
MOLT-4 leukemia
  TGI: 31 µM
OVCAR-4 ovarian
  TGI: 62.8 µM
LOX IMVI melanoma
  TGI: > 100 µM
HOP-62 NSCLC
  TGI: > 100 µM
SNB-19 CNS
  TGI: > 100 µM
TK-10 renal
  TGI: > 100 µM
A498 renal
  TGI: > 100 µM
HCC-2998 colon
  TGI: > 100 µM
BT-549 breast
  TGI: > 100 µM
SK-OV-3 ovarian
  TGI: > 100 µM
ACHN renal
  TGI: > 100 µM
SK-MEL-2 melanoma
  TGI: 72 µM
K-562 leukemia
  TGI: 51.3 µM
PC-3 prostate
  TGI: > 100 µM
M14 melanoma
  TGI: > 100 µM
UACC-62 melanoma
  TGI: > 100 µM
A549 NSCLC
  TGI: > 100 µM
RPMI-8226 leukemia
  TGI: 54.6 µM
SF-295 CNS
  TGI: > 100 µM
UACC-257 melanoma
  TGI: > 100 µM
OVCAR-8 ovarian
  TGI: > 100 µM
MDA-MB-435
  TGI: > 100 µM
CCRF-CEM leukemia
  TGI: 30.8 µM
SF-539 CNS
  TGI: > 100 µM
HCT-116 colon
  TGI: > 100 µM
T-47D breast
  TGI: > 100 µM
U251 CNS
  TGI: > 100 µM
NCI/ADR-RES ovarian
  TGI: > 100 µM
EKVX NSCLC
  TGI: > 100 µM
MCF7 breast
  TGI: > 100 µM
COLO 205 colon
  TGI: 67.8 µM
HS 578T breast
  TGI: > 100 µM
MDA-MB-231 breast
  TGI: > 100 µM
HCT-15 colon
  TGI: > 100 µM
SNB-75 CNS
  TGI: > 100 µM
NCI-H460 lung
  TGI: > 100 µM
HL-60(TB) leukemia
  TGI: 42.4 µM
NCI-H522 lung
  TGI: 77.1 µM
KM12 colon
  TGI: > 100 µM
SN12C renal
  TGI: > 100 µM
SK-MEL-28 melanoma
  TGI: > 100 µM
CAKI-1 renal
  TGI: > 100 µM
OVCAR-5 ovarian
  TGI: > 100 µM
NCI-H226 lung
  TGI: > 100 µM
786-0 renal
  TGI: > 100 µM
MDA-N
  TGI: > 100 µM
NCI-H23 lung
  TGI: > 100 µM
MALME-3M melanoma
  TGI: > 100 µM
